# Assay results taken from US6706664B1, “Benzoxazole compounds, process for the preparation thereof and herbicides” (UBE Industries, Ltd., priority 1999, dated 2004).
# Columns and labels:
# Parameters in all cases: key: 0: normal development; 1: Less damaged; 2: Slightly damaged; 3: Moderately damaged; 4: Severely damaged; 5: All killed
# solgum = test: Soil treatment test for upland field; format: in vivo; conditions: 500 g/ha, glass house 25° C., 3 weeks
# How it was run: (§1)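 Pre-emergence: seeds sown in Ube alluvial soil in pots, then soil surface sprayed with wettable-powder formulation diluted in water with 0.05% surfactant at 500 g/ha. Plants kept in glasshouse at average 25° C for 3 weeks; injury scored 0 (normal) to 5 (all killed).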
# wheat [1] = test: Soil treatment test for upland field; format: in vivo; conditions: 500 g/ha, glass house 25° C., 3 weeks
# How it was run: as §1
# sugar beat [2] = test: Soil treatment test for upland field; format: in vivo; conditions: 500 g/ha, glass house 25° C., 3 weeks
# How it was run: as §1
# soybean [3] = test: Soil treatment test for upland field; format: in vivo; conditions: 500 g/ha, glass house 25° C., 3 weeks
# How it was run: as §1
# corn = test: Soil treatment test for upland field; format: in vivo; conditions: 500 g/ha, glass house 25° C., 3 weeks
# How it was run: as §1
# cotton [4] = test: Soil treatment test for upland field; format: in vivo; conditions: 500 g/ha, glass house 25° C., 3 weeks
# How it was run: as §1
# flat sedge = test: Herbicidal test for paddy field; format: in vivo, Cyperus serotinus; conditions: paddy field pot, 500 g/ha dropwise at 1.5 leaf stage of barnyardgrass, 3 weeks, rank vs non-treated
# How it was run: (§2)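 Ube alluvial soil in pots flooded to 3 cm water depth, sown with seeds or tubers. Wettable powder diluted in water with 0.05% surfactant was dripped onto the water at 500 g/ha when barnyardgrass reached the 1.5-leaf stage. After 3 weeks in a glasshouse at an average of 25° C, damage was scored 0 (normal) to 5 (all killed) against untreated pots.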
# young rice plant = test: Herbicidal test for paddy field; format: in vivo; conditions: paddy field pot, 500 g/ha dropwise at 1.5 leaf stage of barnyardgrass, 3 weeks, rank vs non-treated
# How it was run: as §2
# wheat [5] = test: Foliar spread test for upland field; format: in vivo; conditions: foliar spray 500 ppm, 3 weeks, rank vs non-treated
# How it was run: (§3)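 Post-emergence foliar spray, 500 ppm (wettable powder in water + 0.5% surfactant), on ~2-week-old plants grown in volcanic ash soil; glasshouse, avg 25° C, 3 wk; visual damage score 0–5.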
# sugar beat [6] = test: Foliar spread test for upland field; format: in vivo; conditions: foliar spray 500 ppm, 3 weeks, rank vs non-treated
# How it was run: as §3
# soybean [7] = test: Foliar spread test for upland field; format: in vivo; conditions: foliar spray 500 ppm, 3 weeks, rank vs non-treated
# How it was run: as §3
# cotton [8] = test: Foliar spread test for upland field; format: in vivo; conditions: foliar spray 500 ppm, 3 weeks, rank vs non-treated
# How it was run: as §3
# morning glory = test: Foliar spread test for upland field; format: in vivo, Ipomoea spps.; conditions: foliar spray 500 ppm, 3 weeks, rank vs non-treated
# How it was run: as §3
# barnyardgrass = test: Foliar spread test for upland field; format: in vivo, Echinochloa crusgalli; conditions: foliar spray 500 ppm, 3 weeks, rank vs non-treated
# How it was run: as §3
# Large crabgrass = test: Foliar spread test for upland field; format: in vivo, Digitaria adscendens; conditions: foliar spray 500 ppm, 3 weeks, rank vs non-treated
# How it was run: as §3
# bulrush = test: Herbicidal test for paddy field; format: in vivo, Scrips juncoides; conditions: paddy field pot, 500 g/ha dropwise at 1.5 leaf stage of barnyardgrass, 3 weeks, rank vs non-treated
# How it was run: as §2
compound,measurement,setting,value
CCC(Oc1cccc(C(F)(F)F)c1)c1nc2cc(Br)ccc2o1 (centres unmarked) [Compound 166],Effects Solgum,solgum,0
same,Effects Wheat,wheat [1],0
same,Effects Sugar beat,sugar beat [2],5
same,Effects Soybean,soybean [3],0
same,Effects Corn,corn,0
same,Effects Cotton,cotton [4],0
same,Effect Flat sedge,flat sedge,4
same,Effect Young rice plant,young rice plant,1
same,Effects Wheat,wheat [5],1
same,Effects Sugar beat,sugar beat [6],4
same,Effects Soybean,soybean [7],4
same,Effects Cotton,cotton [8],2
same,Effects Morning glory,morning glory,4
same,Effects Barnyardgrass,barnyardgrass,1
same,Effects Large crabgrass,Large crabgrass,3
CCC(Oc1cccc(C(F)(F)F)c1)c1nc2cc(C#N)ccc2o1 (centres unmarked) [Compound 190],Effects Solgum,solgum,2
same,Effects Wheat,wheat [1],2
same,Effects Sugar beat,sugar beat [2],5
same,Effects Soybean,soybean [3],0
same,Effects Corn,corn,2
same,Effects Cotton,cotton [4],5
same,Effect Flat sedge,flat sedge,3
same,Effect Young rice plant,young rice plant,3
same,Effects Wheat,wheat [5],2
same,Effects Sugar beat,sugar beat [6],3
same,Effects Soybean,soybean [7],5
same,Effects Cotton,cotton [8],3
same,Effects Morning glory,morning glory,3
same,Effects Barnyardgrass,barnyardgrass,3
same,Effects Large crabgrass,Large crabgrass,3
CCC(Oc1ccc(F)c(C(F)(F)F)c1)c1nc2cc(F)c(F)cc2o1 (centres unmarked) [Compound 284],Effect Bulrush,bulrush,4
same,Effects Solgum,solgum,2
same,Effects Wheat,wheat [1],2
same,Effects Sugar beat,sugar beat [2],5
same,Effects Soybean,soybean [3],2
same,Effects Corn,corn,2
same,Effects Cotton,cotton [4],1
same,Effect Flat sedge,flat sedge,4
same,Effect Young rice plant,young rice plant,2
same,Effects Wheat,wheat [5],2
same,Effects Sugar beat,sugar beat [6],4
same,Effects Soybean,soybean [7],5
same,Effects Cotton,cotton [8],3
same,Effects Morning glory,morning glory,3
same,Effects Barnyardgrass,barnyardgrass,1
same,Effects Large crabgrass,Large crabgrass,4
CCC(Oc1ccc(Cl)c(C(F)(F)F)c1)c1nc2cc(F)ccc2o1 (centres unmarked) [Compound 441],Effects Solgum,solgum,1
same,Effects Wheat,wheat [1],1
same,Effects Sugar beat,sugar beat [2],5
same,Effects Soybean,soybean [3],0
same,Effects Corn,corn,0
same,Effects Cotton,cotton [4],0
same,Effect Flat sedge,flat sedge,2
same,Effect Young rice plant,young rice plant,1
same,Effects Wheat,wheat [5],2
same,Effects Sugar beat,sugar beat [6],4
same,Effects Soybean,soybean [7],3
same,Effects Cotton,cotton [8],3
same,Effects Morning glory,morning glory,1
same,Effects Barnyardgrass,barnyardgrass,2
same,Effects Large crabgrass,Large crabgrass,2
CCCC(Oc1cccc(C(F)(F)F)c1)c1nc2cc(C#N)ccc2o1 (centres unmarked) [Compound 192],Effect Bulrush,bulrush,4
same,Effects Solgum,solgum,2
same,Effects Wheat,wheat [1],2
same,Effects Sugar beat,sugar beat [2],5
same,Effects Soybean,soybean [3],0
same,Effects Corn,corn,2
same,Effects Cotton,cotton [4],1
same,Effect Flat sedge,flat sedge,4
same,Effect Young rice plant,young rice plant,1
same,Effects Wheat,wheat [5],2
same,Effects Sugar beat,sugar beat [6],4
same,Effects Soybean,soybean [7],3
same,Effects Cotton,cotton [8],3
same,Effects Morning glory,morning glory,2
same,Effects Barnyardgrass,barnyardgrass,2
same,Effects Large crabgrass,Large crabgrass,3
CCC(Oc1ccc(F)c(C(F)(F)F)c1)c1nc2cc(Cl)c(C)cc2o1 (centres unmarked) [Compound 340],Effect Bulrush,bulrush,4
same,Effects Solgum,solgum,3
same,Effects Wheat,wheat [1],1
same,Effects Sugar beat,sugar beat [2],5
same,Effects Soybean,soybean [3],0
same,Effects Corn,corn,2
same,Effects Cotton,cotton [4],0
same,Effect Flat sedge,flat sedge,2
same,Effect Young rice plant,young rice plant,0
same,Effects Wheat,wheat [5],2
same,Effects Sugar beat,sugar beat [6],3
same,Effects Soybean,soybean [7],3
same,Effects Cotton,cotton [8],3
same,Effects Morning glory,morning glory,3
same,Effects Barnyardgrass,barnyardgrass,2
same,Effects Large crabgrass,Large crabgrass,4
CCC(Oc1cccc(OC(F)(F)F)c1)c1nc2cc([N+](=O)[O-])ccc2o1 (centres unmarked) [Compound 450],Effect Bulrush,bulrush,4
same,Effects Solgum,solgum,2
same,Effects Wheat,wheat [1],1
same,Effects Sugar beat,sugar beat [2],5
same,Effects Soybean,soybean [3],1
same,Effects Corn,corn,2
same,Effects Cotton,cotton [4],2
same,Effect Flat sedge,flat sedge,3
same,Effect Young rice plant,young rice plant,1
same,Effects Wheat,wheat [5],2
same,Effects Sugar beat,sugar beat [6],5
same,Effects Soybean,soybean [7],4
same,Effects Cotton,cotton [8],5
same,Effects Morning glory,morning glory,2
same,Effects Barnyardgrass,barnyardgrass,3
same,Effects Large crabgrass,Large crabgrass,4
CCC(Oc1ccc(F)c(C(F)(F)F)c1)c1nc2cc([N+](=O)[O-])ccc2o1 (centres unmarked) [Compound 177],Effect Bulrush,bulrush,5
same,Effects Solgum,solgum,2
same,Effects Wheat,wheat [1],2
same,Effects Sugar beat,sugar beat [2],5
same,Effects Soybean,soybean [3],1
same,Effects Corn,corn,2
same,Effects Cotton,cotton [4],2
same,Effect Flat sedge,flat sedge,3
same,Effect Young rice plant,young rice plant,2
same,Effects Wheat,wheat [5],2
same,Effects Soybean,soybean [7],5
same,Effects Cotton,cotton [8],3
same,Effects Morning glory,morning glory,5
same,Effects Barnyardgrass,barnyardgrass,2
same,Effects Large crabgrass,Large crabgrass,2
CCC(Oc1cccc(C(F)(F)F)c1)c1nc2cc(F)ccc2o1 (centres unmarked) [Compound 120],Effect Bulrush,bulrush,3
same,Effects Solgum,solgum,1
same,Effects Wheat,wheat [1],0
same,Effects Sugar beat,sugar beat [2],3
same,Effects Soybean,soybean [3],0
same,Effects Corn,corn,0
same,Effects Cotton,cotton [4],0
same,Effect Flat sedge,flat sedge,2
same,Effect Young rice plant,young rice plant,1
same,Effects Wheat,wheat [5],2
same,Effects Sugar beat,sugar beat [6],5
same,Effects Soybean,soybean [7],5
same,Effects Cotton,cotton [8],2
same,Effects Morning glory,morning glory,5
same,Effects Barnyardgrass,barnyardgrass,1
same,Effects Large crabgrass,Large crabgrass,1
"CCC(Oc1ccc(F)c(C(F)(F)F)c1)c1nc2cc(F)ccc2o1 (centres unmarked) [Compound 119, 1-(5-fluorobenzoxazol-2-yl)-1-(4-fluoro-3-(trifluoromethyl)phenoxy)propane]",Effects Solgum,solgum,0
same,Effects Wheat,wheat [1],0
same,Effects Sugar beat,sugar beat [2],5
same,Effects Soybean,soybean [3],0
same,Effects Corn,corn,0
same,Effects Cotton,cotton [4],0
same,Effect Flat sedge,flat sedge,2
same,Effect Young rice plant,young rice plant,1
same,Effects Wheat,wheat [5],1
same,Effects Sugar beat,sugar beat [6],3
same,Effects Soybean,soybean [7],2
same,Effects Cotton,cotton [8],1
same,Effects Morning glory,morning glory,3
same,Effects Barnyardgrass,barnyardgrass,1
same,Effects Large crabgrass,Large crabgrass,1
